Legend:
[1] = population PK, elderly patients; ref Wang et al., 2022; cited from earlier work
Source text: Compared to the administration of a fixed dose of PB, the administration of a body-weight-based dose of PB increases the efficacy of the antibiotic ([Sandri et al., 2013]; [Miglis et al., 2018]; [Tsuji et al., 2019]; [Wang et al., 2021a]). However, clinicians usually administer a fixed dose of PB due to challenges in obtaining accurate body weight information about critically ill patients. Moreover, fixed loading and maintenance doses of polymyxin B appear more appropriate than weight-based dosing regimens in patients within the 45–90-kg BW range ([Hanafin et al., 2023]). This study is the fir ...

[2] = Pharmacokinetic study of intravenous PB in elderly patients infected with multidrug-resistant Gram-negative bacteria; type: in vivo, human; details: for AUCss, 24 h: elderly patients, steady state, first-order elimination-based equation, mean ± SD; for Ctrough: human, in vivo
Source text: This study was approved by the Medical Ethics Committee of Shandong Provincial Hospital (No. 2021–356). Written informed consent was obtained from all patients or their legal representatives. Herein, we included 14 elderly patients (65≤ Age ≤95) who received intravenous PB injections (polymyxin B sulfate for injection, Shanghai First Biochemical Pharmaceutical Co., Ltd.) in the period between April 2021 and January 2023 for treating infections caused by multidrug-resistant Gram-negative bacteria. These patients were divided into two groups: in the first group, eight patients received 100 mg loading dose combined with 75 mg maintenance dose q 12 h, and in the other group, six subjects received a 150-mg loading dose and a 100-mg maintenance dose q 12 h. The duration of the intravenous treatment was 1 h. The dosage for all patients was decided by the clinician according to the clinical response. Patients undergoing plasma exchange, continuous renal replacement therapy, or extracorporeal membrane oxygenation were excluded. Clinical and demographic data (age, gender, body weight, pathogens, infection sites, and PB-treatment history) were collected from electronic medical records. Laboratory data, including serum creatinine (Scr), estimated glomerular filtration rate (eGFR), and creatinine clearance (CrCL), were collected on the sampling day. CrCL was calculated using the Cockcroft–Gault equation. On the third day after the administration of the loading dose, blood samples were collected at pre-dose (0 h) and 0.5, 1, 2, 3, 6, 8, and 12 h after the start of administration using EDTA tubes and processed to obtain plasma samples. A total of 112 blood samples were collected and detected, and all of these were stored at −70°C. After analysis by the validated methods, PK parameters were calculated by non-compartmental analysis using Phoenix WinNonlin software 8.3 (Certara, United States).
After validation, the HPLC–MS/MS method was applied to the PK study of PB in elderly patients infected with multidrug-resistant Gram-negative bacteria. A total of 112 blood samples were collected from 14 elderly patients receiving intravenous PB treatment. […] The concentration of PB is the sum of the concentrations of PB1 and PB2 calculated, and it is based on the formula provided by [Liu et al. (2023)]. The individual AUCss, 24 h values were estimated using the first-order elimination-based equation method ([Begg et al., 1995]; [Pai et al., 2014]; [Liu et al., 2023]).

[3] = Kidney function indicators (Scr, eGFR) during PB therapy; type: in vivo, human; details: elderly patients, 100-mg maintenance dose, after an average of 3.83 days
Source text: This study was approved by the Medical Ethics Committee of Shandong Provincial Hospital (No. 2021–356). Written informed consent was obtained from all patients or their legal representatives. Herein, we included 14 elderly patients (65≤ Age ≤95) who received intravenous PB injections (polymyxin B sulfate for injection, Shanghai First Biochemical Pharmaceutical Co., Ltd.) in the period between April 2021 and January 2023 for treating infections caused by multidrug-resistant Gram-negative bacteria. […] CrCL was calculated using the Cockcroft–Gault equation. […] A total of 112 blood samples were collected and detected, and all of these were stored at −70°C. After analysis by the validated methods, PK parameters were calculated by non-compartmental analysis using Phoenix WinNonlin software 8.3 (Certara, United States).
The recommended AUCss, 24 h range of PB, which is based on the therapeutic window of the drug, is between 50 and 100 μg h/mL ([Tsuji et al., 2019]; [Liu et al., 2023]). […] To avoid the MS/MS crosstalk among the above-mentioned analytes undermining their detection sensitivity and quantitative accuracy, each analyte should be quantified with satisfactory chromatographic separation. […] However, crosstalk still should be measured in a high concentration level. […]

[4] = Stability of PB1 and PB2 in human plasma under different storage conditions; details: human plasma: 24 h at room temperature (25°C), 24 h at 4°C (post preparative), three freeze–thaw cycles, 85 days at −70°C
Procedure: The stock solutions of the calibrators and quality control (QC) samples should be prepared separately in the same way. The PB stock solution for calibrators and QC samples was prepared in water (1% FA) at 400.48 μg/mL for PB1 and 40.84 μg/mL for PB2. Consequently, working solutions for construction of calibrators and QC were prepared by serially diluting the stock solution with a 1% aqueous solution of FA. The concentrations of the working solutions for calibrators were 10.01, 30.03, 50.05, 100.12, 150.18, and 200.24 μg/mL for PB1 and 1.02, 3.06, 5.10, 10.21, 15.31, and 20.42 μg/mL for PB2. The concentrations of working solutions for QCs were prepared at 20.02 μg/mL (LQC), 90.11 μg/mL (MQC), and 180.22 μg/mL (HQC) for PB1 and 2.04 μg/mL (LQC), 9.18 μg/mL (MQC), and 18.36 μg/mL (HQC) for PB2. The working solution of IS (10.00 μg/mL) was prepared using methanol. All the above solutions were stored at −70°C. The calibrators and QC samples were obtained by spiking 90 μL of blank plasma with 10 μL of working solution at the corresponding concentration. The standard curves were in the range of 1.00–20.02 μg/mL and 0.10–2.04 μg/mL for PB1 and PB2, respectively.
Typically, 100 μL of the plasma sample was mixed with 10 μL IS working solution, and then, 300 μL 0.1% FA in methanol was added to the sample for protein precipitation. The mixture was vortexed for 3 min and centrifuged in an Eppendorf 5415D microcentrifuge (Eppendorf, Hamburg, Germany) at 11,000 g rpm for 10 min. Subsequently, 200 μL of the supernatant was transferred into a clean polypropylene tube and diluted with 150 μL of 0.1% FA in water. The mixture solution was vortexed for 3 min and centrifuged at 11,000 rpm for 10 min using the same centrifuge. Finally, 200 μL of the supernatant was transferred into an injection bottle, and 10 μL was injected into the HPLC–MS/MS for analysis.
The stability of the working solutions of PB1 and PB2 was evaluated. The short-term stability and long-term stability of PB1 and PB2 in human plasma were evaluated under the following conditions: placed at room temperature or 4°C for 24 h, frozen and thawed three times, and stored at −70°C for 85 days. The stability evaluation was conducted for both LQC and HQC concentrations.

Polymyxin B [PB]
typical value of CL [1]: 1.87 L/h
AUCss, 24 h ([2]; maintenance 75 mg q12h, n = 8): 117.70 ± 37.03 µg·h/mL
AUCss, 24 h ([2]; maintenance 100 mg q12h, n = 6): 152.73 ± 70.09 µg·h/mL
Ctrough ([2]; 75 mg): 2650 ± 1320 ng/mL
Ctrough ([2]; 100 mg): 3400 ± 1870 ng/mL
mean Scr value during therapy [3]: 111.82 µmol/L
mean eGFR value during therapy [3]: 66.00 mL/min
Stability in human plasma (in words) [4]: stable
